# According to article PMC4499255, “Monitoring Conformational Changes in the NDM-1 Metallo-β-lactamase by ^19F NMR Spectroscopy” (Angewandte Chemie (International Ed. in English), 2014):
# Like-named read-outs stand apart in the source and are kept apart here.
# Assays:
# [1] = biological target: NDM-1* (BFA-labeled M67C NDM-1) (Klebsiella pneumoniae, UniProt C7C422, M67C); format: biochemical; settings: labeled NDM-1*; for Km: substrate affinity
# Protocol: (§1) buffer was prepared freshly prior to the reaction.
# Kinetic and inhibition analyses were performed as described1. K measurements were performed
# (§2) nM NDM-1* for nitrocefin measurements. […]
# NDM-1 [2] = biological target: T1, NDM-1 (Klebsiella pneumoniae, UniProt C7C422); settings: unlabeled NDM-1; cited from earlier work
# T1 sequence (C7C422 37-270 limits assumed): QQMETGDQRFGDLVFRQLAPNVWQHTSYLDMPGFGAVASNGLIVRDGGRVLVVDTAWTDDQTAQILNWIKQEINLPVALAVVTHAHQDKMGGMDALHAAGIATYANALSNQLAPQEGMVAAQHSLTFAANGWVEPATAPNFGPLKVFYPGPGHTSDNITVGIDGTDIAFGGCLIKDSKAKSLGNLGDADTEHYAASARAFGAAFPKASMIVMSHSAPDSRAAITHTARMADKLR
# [3] = biological target: di-ZnII-NDM-1* (BFA-labeled M67C NDM-1) (Klebsiella pneumoniae, UniProt C7C422, M67C); test: 19F NMR ligand titration / binding assay
# di-ZnII-NDM-1* (BFA-labeled M67C NDM-1), sequence (C7C422 37-270 M67C): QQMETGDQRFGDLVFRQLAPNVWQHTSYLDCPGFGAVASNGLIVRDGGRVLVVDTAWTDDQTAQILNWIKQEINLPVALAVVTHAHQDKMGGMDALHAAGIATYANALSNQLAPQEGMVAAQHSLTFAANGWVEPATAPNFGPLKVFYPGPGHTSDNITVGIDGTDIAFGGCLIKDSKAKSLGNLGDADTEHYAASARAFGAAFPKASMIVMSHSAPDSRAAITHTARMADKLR
# Protocol: To calculate the molar fraction of protein–ligand complex, Equation (1) was used: [drawing 1] (1) where [P0] is the total protein concentration and [L0] is the total ligand concentration titrated into solution. […]
# as §1
# Kinetic and inhibition analyses were performed as described1. K measurements were performed […]
# as §2
# with rf field of 3.125 kHz.
# 768 scans and a recovery delay of 1s. Data were processed with 3 Hz Lorentzian line broadening […]
# Trifluoroacetic acid (TFA, 50 µM) […]
# was used as an internal standard. All inhibitor incubations were compared to appropriate NDM-1* […]
# A DMSO titration curve was used for reference
# Metal binding experiments
# NDM-1 [4] = biological target: T1, NDM-1
# [5] = tested on: C[C@@H](O)[C@H]1C(=O)N2C(C(=O)O)=C(S[C@@H]3CN[C@H](C(=O)N(C)C)C3)[C@H](C)[C@H]12; test: purified protein, by the assay type; settings: other: unlabeled NDM-1; substrate affinity; 25.0 °C
# Protocol: We then investigated the kinetic properties of NDM-1* compared to unlabeled NDM-1.
# using 0.5 nM NDM-1 and 1 nM NDM-1* for meropenem measurements and 0.25 nM NDM-1 and 2
# NDM-1* (BFA-labeled M67C NDM-1), sequence (C7C422 37-270 M67C): as above
compound,measurement,setting,value
C[C@@H](O)[C@H]1C(=O)N2C(C(=O)O)=C(S[C@@H]3CN[C@H](C(=O)N(C)C)C3)[C@H](C)[C@H]12 [Meropenem],kcat,[1],67.8 ± 4.3 s⁻¹
same,Km,[1],54.8 ± 9.4 µM
O=C(Cc1cccs1)N[C@@H]1C(=O)N2C(C(=O)O)=C(/C=C/c3ccc([N+](=O)[O-])cc3[N+](=O)[O-])CS[C@H]12 [Nitrocefin],kcat,[1],22.9 ± 0.6 s⁻¹
same,Km,[1],6.2 ± 0.7 µM
same,kcat,NDM-1 [2],25.3±1.6^[a] s^−1
C[C@H]1[C@H](NC(=O)/C(=N\OC(C)(C)C(=O)O)c2csc(N)n2)C(=O)N1S(=O)(=O)O [aztreonam],19F chemical shift change upon addition of ligand (binding),[3]; ligand 2.5 mM,no ^19F chemical shift change was observed
same,reported inhibition of NDM-1,NDM-1 [4]; ref 9b; cited from earlier work,not to inhibit NDM-1
"O=C(N[C@@H](Cc1c[nH]c2ccccc12)C(=O)O)c1nc(Cl)c2ccccc2c1O [compound 3, (S)-2-(1-chloro-4-hydroxyisoquinoline-3-carboxamido)-3-(1H-indol-3-yl)propanoic acid]",Kd,[3],131 µM
same,IC50,NDM-1 [4]; read-out: reported IC50; NDM-1; cited from earlier work,61 µM
"O=C(N[C@H](Cc1c[nH]c2ccccc12)C(=O)O)c1nc(Cl)c2ccccc2c1O [compound 4, (R)-2-(1-chloro-4-hydroxyisoquinoline-3-carboxamido)-3-(1H-indol-3-yl)propanoic acid]",IC50,NDM-1 [4]; NDM-1; read-out: reported IC50; cited from earlier work,47 µM
NDM-1 (Klebsiella pneumoniae),Km,[5],76.6 ± 4.4 µM
same,kcat,[5],235 ± 5.6 s⁻¹
